# Experimental data: PubChem BioAssay AID248 (DTP/NCI, 2004)
# Several values for one entry are separate records, joined by “and”; a condition that tells them apart may be missing. Equal entries are not always repeated. Inconclusive results and toxic doses are left out.
# System: L1210 leukemia ip in BDF1 mice, survival T/C
# Test: NCI In Vivo Anticancer Drug Screen. Data for tumor model L1210 Leukemia (intraperitoneal) in B6D2F1 (BDF1) mice
# Conditions: endpoint: mean survival time, higher = longer survival
# Outline: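 In this screen, tumor-bearing mice given compound are compared to those given vehicle, and their survival values are reported as a treated-to-control quotient.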
# [1] = dose: 200.0 mg/kg/injection, schedule: Q01DX001 (ip), vehicle: carboxymethylcellulose (CMC)
# [2] = dose: 100.0 mg/kg/injection, schedule: Q01DX001 (ip), vehicle: other
# [3] = dose: 200.0 mg/kg/injection, schedule: Q01DX001 (ip), vehicle: other
# [4] = dose: 400.0 mg/kg/injection, schedule: Q01DX001 (ip), vehicle: other
# [5] = dose: 100.0 mg/kg/injection, schedule: Q01DX009 (ip), vehicle: Klucel (hydroxypropylcellulose) (HPC)
# [6] = dose: 100.0 mg/kg/injection, schedule: Q04DX003 (ip), vehicle: Klucel (hydroxypropylcellulose) (HPC)
# [7] = dose: 200.0 mg/kg/injection, schedule: Q01DX009 (ip), vehicle: Klucel (hydroxypropylcellulose) (HPC)
# [8] = dose: 200.0 mg/kg/injection, schedule: Q04DX003 (ip), vehicle: Klucel (hydroxypropylcellulose) (HPC)
# [9] = dose: 400.0 mg/kg/injection, schedule: Q01DX009 (ip), vehicle: Klucel (hydroxypropylcellulose) (HPC)
# [10] = dose: 400.0 mg/kg/injection, schedule: Q04DX003 (ip), vehicle: Klucel (hydroxypropylcellulose) (HPC)
# [11] = dose: 100.0 mg/kg/injection, schedule: Q01DX001 (ip), vehicle: carboxymethylcellulose (CMC)
# [12] = dose: 400.0 mg/kg/injection, schedule: Q01DX001 (ip), vehicle: carboxymethylcellulose (CMC)
# [13] = dose: 100.0 mg/kg/injection, schedule: Q01DX009 (ip), vehicle: saline with Tween-80
# [14] = dose: 200.0 mg/kg/injection, schedule: Q01DX009 (ip), vehicle: saline with Tween-80
# [15] = dose: 50.0 mg/kg/injection, schedule: Q01DX009 (ip), vehicle: saline
# [16] = dose: 100.0 mg/kg/injection, schedule: Q01DX009 (ip), vehicle: saline
# [17] = dose: 100.0 mg/kg/injection, schedule: Q01DX001 (ip), vehicle: saline with Tween-80
# [18] = dose: 200.0 mg/kg/injection, schedule: Q01DX001 (ip), vehicle: saline with Tween-80
# [19] = dose: 400.0 mg/kg/injection, schedule: Q01DX001 (ip), vehicle: saline with Tween-80
# [20] = dose: 75.0 mg/kg/injection, schedule: Q01DX001 (ip), vehicle: saline
# [21] = dose: 150.0 mg/kg/injection, schedule: Q01DX001 (ip), vehicle: saline
# [22] = dose: 50.0 mg/kg/injection, schedule: Q01DX009 (ip), vehicle: saline with Tween-80
# [23] = dose: 100.0 mg/kg/injection, schedule: Q04DX003 (ip), vehicle: saline with Tween-80
# [24] = dose: 200.0 mg/kg/injection, schedule: Q04DX003 (ip), vehicle: saline with Tween-80
# [25] = dose: 400.0 mg/kg/injection, schedule: Q04DX003 (ip), vehicle: saline with Tween-80
# [26] = dose: 100.0 mg/kg/injection, schedule: Q01DX001 (ip), vehicle: saline
# [27] = dose: 200.0 mg/kg/injection, schedule: Q01DX001 (ip), vehicle: saline
# [28] = dose: 50.0 mg/kg/injection, schedule: Q04DX003 (ip), vehicle: Klucel (hydroxypropylcellulose) (HPC)
# [29] = dose: 100.0 mg/kg/injection, schedule: Q01DX001 (ip), vehicle: Klucel (hydroxypropylcellulose) (HPC)
# [30] = dose: 200.0 mg/kg/injection, schedule: Q01DX001 (ip), vehicle: Klucel (hydroxypropylcellulose) (HPC)
# [31] = dose: 400.0 mg/kg/injection, schedule: Q01DX001 (ip), vehicle: Klucel (hydroxypropylcellulose) (HPC)
structure (smiles),measurement,setting,value
CCOc1c(Br)cc(N=Cc2ccc(N(CCCl)CCCl)c(OC)c2)cc1Br,T/C,"dose: 44.0 mg/kg/injection, schedule: Q01DX001 (ip), vehicle: carboxymethylcellulose (CMC)",120 % of control
same,T/C,"dose: 150.0 mg/kg/injection, schedule: Q01DX001 (ip), vehicle: carboxymethylcellulose (CMC)",123 % of control
same,T/C,[1],104 % of control
[CH3][Sn]1([CH3])[c]2ccccc2Oc2cccc[c]21,T/C,[2],92 % of control
same,T/C,[3],97 % of control
same,T/C,[4],87 % of control
CCCCCCCCCCCCCCCCn1/c(=N/N=C/c2ccccc2S(=O)(=O)O)sc2ccccc21,T/C,[5],106 % of control
same,T/C,[6],113 % of control
same,T/C,[7],112 % of control
same,T/C,[8],106 % of control
same,T/C,[9],105 % of control
same,T/C,[10],116 % of control
O=[N+]([O-])c1ccc(/C=C\c2ccccc2)cc1,T/C,[5],95 % of control
same,T/C,[6],98 % of control
same,T/C,[7],97 % of control
same,T/C,[8],98 % of control
same,T/C,[9],96 % of control
same,T/C,[10],96 % of control
COc1ccc(Br)cc1CCC=O,T/C,[11],100 % of control
same,T/C,[1],100 % of control
same,T/C,[12],100 % of control
CCNC(=O)N(C)Cc1ccc(Cl)cc1,T/C,[13],88 % of control
same,T/C,[14],95 % of control
COC1=CC23CCCN2CCc2cc4c(cc2C3C1O)OCO4 (centres undefined),T/C,"dose: 25.0 mg/kg/injection, schedule: Q01DX009 (ip), vehicle: saline",93 % of control
same,T/C,[15],103 % of control
same,T/C,"dose: 55.0 mg/kg/injection, schedule: Q01DX009 (ip), vehicle: saline",98 % of control
same,T/C,[16],117 % of control
same,T/C,"dose: 110.0 mg/kg/injection, schedule: Q01DX009 (ip), vehicle: saline",107 % of control
same,T/C,"dose: 220.0 mg/kg/injection, schedule: Q01DX009 (ip), vehicle: saline",102 % of control
[Si]C1CCCCC1,T/C,[17],96 % of control
same,T/C,[18],89 % of control
same,T/C,[19],96 % of control
CN1CCN(Cc2cc(Cl)c3cccnc3c2O)CC1,T/C,[20],100 % of control
same,T/C,[21],106 % of control
Cc1ccc(C(=O)NCCCOc2ccc(N)cc2Cl)cc1S(=O)(=O)F,T/C,[22],104 % of control
same,T/C,[13],95 % of control
same,T/C,[23],103 % of control
same,T/C,[14],90 % of control
same,T/C,[24],94 % of control
same,T/C,[25],105 % of control
c1ccc(Nc2nnnn2C2CCCCC2)cc1,T/C,[17],104 % of control
same,T/C,[18],95 % of control
same,T/C,[19],93 % of control
CCSc1nc(N)c(C#N)cc1C#N,T/C,[5],105 % of control
same,T/C,[6],88 % of control
same,T/C,[7],95 % of control
same,T/C,[8],95 % of control
Nc1nc(=S)c2[nH]c(N=Nc3ccc(S(=O)(=O)Nc4ncccn4)cc3)nc2[nH]1,T/C,"dose: 19.0 mg/kg/injection, schedule: Q04DX003 (ip), vehicle: Klucel (hydroxypropylcellulose) (HPC)",164 % of control
same,T/C,"dose: 29.0 mg/kg/injection, schedule: Q04DX003 (ip), vehicle: Klucel (hydroxypropylcellulose) (HPC)",164 % of control
same,T/C,[5],96 % of control
same,T/C,[23],185 % of control
same,T/C,[7],97 % of control
same,T/C,[24],151 % of control
CCCCCCCC/C=C\CCCCCCCC(=O)OCCCCCCCCCCCCCCCCC,T/C,"dose: 75.0 mg/kg/injection, schedule: Q01DX009 (ip), vehicle: saline sonified",106 % of control
same,T/C,[5],94 % of control
same,T/C,"dose: 150.0 mg/kg/injection, schedule: Q01DX009 (ip), vehicle: saline sonified",104 % of control
same,T/C,[7],91 % of control
same,T/C,"dose: 300.0 mg/kg/injection, schedule: Q01DX009 (ip), vehicle: saline sonified",96 % of control
same,T/C,[9],110 % of control
O/N=C/c1ccc(Cl)cc1,T/C,"dose: 50.0 mg/kg/injection, schedule: Q01DX001 (ip), vehicle: saline",97 % of control
same,T/C,[26],100 % of control
same,T/C,[27],94 % of control
O=C(O)c1cccc([N+](=O)[O-])c1[N+](=O)[O-],T/C,[28],94 % of control
same,T/C,[11],95 % of control
same,T/C,[6],92 % of control
same,T/C,[1],93 % of control
same,T/C,[8],103 % of control
same,T/C,[12],93 % of control
same,T/C,[10],92 % of control
CNc1c(C)cccc1C,T/C,[28],105 % of control
same,T/C,[29],104 % of control
same,T/C,[6],94 % of control
same,T/C,[30],102 % of control
same,T/C,[8],101 % of control
same,T/C,[31],107 % of control
COC(=O)c1ccccc1NN=Nc1ccccc1[N+](=O)[O-],T/C,[5],93 % of control
same,T/C,[6],97 % of control and 86 % of control
same,T/C,[7],88 % of control
same,T/C,[8],98 % of control and 89 % of control
same,T/C,[9],97 % of control
same,T/C,[10],95 % of control and 97 % of control
CCOC(CN=Cc1ccccn1)OCC,T/C,"dose: 100.0 mg/kg/injection, schedule: Q04DX003 (ip), vehicle: saline",97 % of control
same,T/C,"dose: 200.0 mg/kg/injection, schedule: Q04DX003 (ip), vehicle: saline",91 % of control
same,T/C,"dose: 400.0 mg/kg/injection, schedule: Q04DX003 (ip), vehicle: saline",90 % of control
CSCCNC(=O)NS(=O)(=O)c1ccc(C)cc1,T/C,[23],96 % of control
same,T/C,[24],97 % of control
same,T/C,[25],97 % of control
CCOC(=O)C(C)CC(C)(C(=O)OCC)C(=O)OCC (centres undefined),T/C,"dose: 25.0 mg/kg/injection, schedule: Q04DX003 (ip), vehicle: Klucel (hydroxypropylcellulose) (HPC)",98 % of control
same,T/C,"dose: 50.0 mg/kg/injection, schedule: Q01DX009 (ip), vehicle: Klucel (hydroxypropylcellulose) (HPC)",93 % of control
same,T/C,[28],103 % of control
same,T/C,[5],104 % of control
same,T/C,[6],98 % of control and 103 % of control
same,T/C,[7],100 % of control
Cc1ccc(S(=O)(=O)OCC2(COS(=O)(=O)c3ccc(C)cc3)CCC2(COS(=O)(=O)c2ccc(C)cc2)COS(=O)(=O)c2ccc(C)cc2)cc1,T/C,[15],97 % of control
same,T/C,[20],93 % of control
same,T/C,[16],89 % of control
same,T/C,[21],96 % of control
same,T/C,"dose: 200.0 mg/kg/injection, schedule: Q01DX009 (ip), vehicle: saline",89 % of control
same,T/C,"dose: 300.0 mg/kg/injection, schedule: Q01DX001 (ip), vehicle: saline",93 % of control
Nc1ccc(S(=O)(=O)c2cc(CC(N)C(=O)O)cc(O)c2O)cc1 (centres undefined),T/C,"dose: 87.5 mg/kg/injection, schedule: Q01DX009 (ip), vehicle: saline",98 % of control
same,T/C,"dose: 175.0 mg/kg/injection, schedule: Q01DX009 (ip), vehicle: saline",96 % of control
same,T/C,"dose: 350.0 mg/kg/injection, schedule: Q01DX009 (ip), vehicle: saline",86 % of control
CCCCC(=O)c1cc(OC)cc(OC)c1,T/C,"dose: 50.0 mg/kg/injection, schedule: Q01DX001 (ip), vehicle: other",109 % of control
same,T/C,[29],95 % of control
same,T/C,[2],102 % of control
same,T/C,[5],97 % of control
same,T/C,[30],95 % of control
same,T/C,[3],104 % of control
same,T/C,[7],96 % of control
same,T/C,[31],98 % of control
same,T/C,[4],91 % of control
same,T/C,[9],100 % of control
O=C1C2=C(c3ccccc31)C1c3ccccc3C(=O)C1(c1ccccc1)c1ccccc12 (centres undefined),T/C,[26],105 % of control
same,T/C,[27],97 % of control
same,T/C,"dose: 400.0 mg/kg/injection, schedule: Q01DX001 (ip), vehicle: saline",92 % of control
N#CC(Nc1ccccc1)c1ccc(Cl)cc1 (centres undefined),T/C,[22],101 % of control
same,T/C,[13],97 % of control
same,T/C,[14],94 % of control
COc1cc(NC(=O)Nc2ccccc2Cl)c(OC)cc1Cl,T/C,"dose: 100.0 mg/kg/injection, schedule: Q04DX002 (ip), vehicle: saline with Tween-80",93 % of control
